This note sets out measurements from patent US4693884A, “Technetium-99m triphosphonates and tetraphosphonates for the scintigraphic visualization of res-containing organs and lymph vessels, and a process for their preparation” (Hoechst Aktiengesellschaft, priority 1982, dated 1987).

The nature of data set [1]: Organ distribution of 99mTc-labeled substances in rats 30 minutes after injection as a function of the amount of substance administered. In kind it is in vivo. The following applies: for Blood/ml / Kidneys / Liver / Lung / Remainder of body / Spleen / Thyroid: 30 min after injection, n = 3. Here is the method:
Assuming that 2-20 mg of TPB, ETP, PTP or phytate are administered to humans, and assuming that the weight of human is 80 kg, this corresponds to an amount administered of 25-250 μg/kg of body weight. Calculating on the basis of the body weight of rats weighing 200 g, then administration of 5-50 μg of TPB, ETP, PTP or phytate per rat exactly reflects the relationships.
Organ distribution of ^99m Tc TPB, ^99m TC ETP and ^99m Tc
phytate in rats (n = 3) 30
minutes after injection as a function of the amount of substance
(all data as a percentage of the amount of activity administered)

A short description of data set [2]: Example 5: organ distribution of 99mTc ETP in rats. In kind it is in vivo, Sprague-Dawley rats. The following applies: 30 min, intravenous. As for the experimental part:
1.40 g of ethane-1,1,2,2-tetraphosphonic acid are dissolved in about 20 ml of double-distilled water and the pH of the solution is adjusted to 7.0 using 1N sodium hydroxide solution. The total volume of this solution is adjusted to 100 ml with double-distilled water and, while excluding oxygen, 11 mg of SnCl2.2H2 O in 5 ml of aqueous solution are added. The clear solution thus obtained is sterilized by filtration and filled, in 0.2 ml portions, into snap-closure bottles which have previously been cooled with liquid nitrogen, and is then freeze-dried. The contents are covered with nitrogen and the bottles are closed. A bottle then contains about 3.3 mg of Na salt of ETP (corresponding to about 2.7 mg of ETP) and about 11 μg of tin(II).
The substance is labeled with ^99m Tc by the addition of 5 ml of physiologic saline which contains 1.5 mCi of technetium-99m-pertechnetate.After a reaction time of 15 minutes, three Sprague-Dawley rats each received 0.1 ml of this solution by intravenous injection. 30 minutes later, the animals were sacrificed and the organ distribution of ^99m Tc ETP was measured. The following figures (as percentage of the dose administered) were found from this: […]

The nature of data set [3]: Comparison of 99mTc TPB, 99mTc PTP and 99mTc phytate after intravenous injection to dogs. It is filed as in vivo. The conditions noted are these: intravenous; dogs; compared with phytate.
Data set [4] is described as follows: Accumulation of phosphoric acid derivatives investigated as technetium-99m diagnostic agents (bone, liver, RES). The conditions noted are these: in vivo. An excerpt:
It is possible to use phosphoric acid derivatives, particularly organic phosphonic acid derivatives, for bone scintigraphy. Many compounds have been investigated in the search for derivatives suitable as a technetium-99m diagnostic agent for bone.

Data set [5] is described as follows: Example 3: distribution of activity over the organs in rats, lyophilizate. The conditions noted are these: 30 min. In kind it is in vivo, Sprague-Dawley rats. As for the experimental part:
8 g of sodium 2,4,4-triphosphonobutyrate are dissolved in about 60 ml of double-distilled water, the pH of the solution then being 8.5. After the pH had been adjusted to 7 with 1N HCl, 120 mg of SnCl2.2H2 O in 3 ml of 1N HCl were added, the pH was adjusted to 6 using 0.1N NaOH, and the solution was made up to 160 ml with double-distilled water. All operations should be carried out under a protective atmosphere of nitrogen gas. The solution thus obtained is freeze-dried in individual 1 ml portions in snap-closure bottles which have previously been frozen with liquid nitrogen. The contents are covered with nitrogen and the bottles are closed.
After storage for some weeks, the lyophilizate is dissolved in 10 ml of physiologic saline containing 2 mCi of technetium-99m-pertechnetate. After 30 minutes, 3 Sprague-Dawley rats (about 200 g) each receive 0.1 ml of this solution injected into the femoral vein, and 30 minutes later the animals are sacrificed with ether and the distribution of activity over the organs is determined. The following mean figures (as percentage of the dose administered) result: […]

[6] abbreviates: second amount column (printed 50 μg).
Setting [7] is: third amount column (printed 50 μg).
Where [8] appears, read: all amounts of substance investigated.

With `O=P(O)(O)C(C(P(=O)(O)O)P(=O)(O)O)P(=O)(O)O` [ETP, ethane-1,1,2,2-tetraphosphonic acid], in data set [1] ((50 μg)), the Blood/ml was 0.02 percentage of the amount of ac, the Kidneys was 0.12 percentage of the amount of activity administered, the Liver is given as 96.2 percentage of the amount of activity administered and the Lung was 0.18 percentage of the amount of activity administered. In data set [1] ((50 μg)), the Remainder of body was 7.8 percentage of the amount of activity administered, the Spleen is listed as 2.10 percentage of the amount of activity administered and the Thyroid is recorded as 0.03 percentage of the amount of activity administered. Also, in data set [1] (setting [6]), the Blood/ml is 0.04 percentage of the amount of ac, the Kidneys is recorded as 0.16 percentage of the amount of activity administered, the Liver was 95.2 percentage of the amount of activity administered and the Lung is 0.21 percentage of the amount of activity administered. In data set [1] (setting [6]), the Remainder of body is reported as 11.2 percentage of the amount of activity administered, the Spleen was 2.13 percentage of the amount of activity administered and the Thyroid is listed as 0.03 percentage of the amount of activity administered. For the same compound, in data set [1] (setting [7]), the Blood/ml is listed as 0.04 percentage of the amount of ac, the Kidneys is 0.26 percentage of the amount of activity administered, the Liver is 93.6 percentage of the amount of activity administered and the Lung is given as 0.32 percentage of the amount of activity administered. Moreover, in data set [1] (setting [7]), the Remainder of body was 10.4 percentage of the amount of activity administered, the Spleen is on record as 1.30 percentage of the amount of activity administered and the Thyroid is recorded as 0.04 percentage of the amount of activity administered. In addition, in data set [1] (setting [8]), the “accumulation in the liver and spleen compared with phytate” value is “markedly higher than that of phytate”; the “accumulation of activity in the kidneys, blood, femur and remainder of the body compared with phytate” value is recorded as “clearly lower than with phytate”. Also, in data set [1] (deduction from the animal experiments), the “suitability as diagnostic agent for visualization of RES-containing organs compared with 99mTc phytate” value is “unambiguously superior”. In addition, in data set [2], the total recovered activity amounted to 104.5%. Besides, in data set [2] (three rats), the Blood/ml is given as 0.02 percentage of the dose adminis, the Kidneys was 0.12 percentage of the dose adminis, the Liver is given as 96.2 percentage of the dose adminis and the Remainder of body was 7.8 percentage of the dose adminis. For the same compound, in data set [2] (three rats), the Spleen is on record as 2.1 percentage of the dose adminis, the Thyroid is on record as 0.03 percentage of the dose adminis and the lungs is recorded as 0.18 percentage of the dose adminis. In addition, in data set [3], the “decrease in activity via the liver after accumulation in the liver is complete” value was “slower”. Further, in data set [4], the accumulation in bone entry was “virtually not at all” and the “accumulation in the liver” value is recorded as “very preferentially accumulated in the liver”.
With `O=P(O)(O)C(CCC(P(=O)(O)O)P(=O)(O)O)P(=O)(O)O` [BTP, butane-1,1,4,4-tetraphosphonic acid], in data set [4], the accumulation in bone result is given as “virtually not at all” and the “accumulation in the liver” value is “very preferentially accumulated in the liver”.
Turning to `O=C([O-])C(CC(P(=O)(O)O)P(=O)(O)O)P(=O)(O)O.[Na+]` (stereo not drawn) [sodium 2,4,4-triphosphonobutyrate], in data set [5] (femoral vein, mean of 3 rats), the Blood/ml is recorded as 0.03 percentage of the dose adminis, the Kidneys was 0.08 percentage of the dose adminis, the Liver was 96.2 percentage of the dose adminis and the Remainder of body is given as 4.9 percentage of the dose adminis. Also, in data set [5] (femoral vein, mean of 3 rats), the Spleen is 1.9 percentage of the dose adminis, the Thyroid was 0.03 percentage of the dose adminis and the lungs is given as 0.24 percentage of the dose adminis. Further, in data set [5] (related to the dose administered), the recovered activity total came out at 103.4%.
